Experimental data taken from patent publication US9006394B2, “Peptide-presenting surfaces for long-term culture of pluripotent cells” (Wisconsin Alumni Research Foundation, priority 2008, dated 2015).
Ends that are not written are not given here.

What was measured:
[1] = Kyte & Doolittle; cited from earlier work
[2] = system: human ESCs (H9); experiment: Cell adhesion (CellTiter-Glo) with soluble heparin or chondroitinase ABC; assay type: cell-based; conditions: 1 hour; for hESC binding in the presence of soluble heparin: soluble heparin 0.5 mg/mL
Procedure: To determine the effect of a soluble GAG on hESC binding to GBPs, hESCs were plated onto Matrigel-coated surfaces, vitronectin-coated surfaces, or surfaces presenting the heparin-binding peptide […] (SEQ ID NO: 1) in the presence or absence of soluble heparin (0.5 mg/mL). After 1 hour, the surfaces were washed and the cells lysed. The cell lysates were used to determine approximate cell numbers using Cell Titer Glo (Promega). The ratio of the mean luminescence of the cell lysates of cells plated in the presence of heparin versus those without heparin was expressed as percent cell binding for each surface.
To determine if glycosaminoglycans (GAGs) are required for GBP binding, human ESCs (H9) cultured on Matrigel were dissociated using an enzyme-free, Hanks'-based cell dissociation buffer (Sigma) for 10-15 minutes. Cells were resuspended in DMEM/F12 (Gibco), or DMEM/F12 supplemented with 2 units/mL chondroitinase ABC (Sigma), or 500 ug/mL heparin (Sigma). Cells treated with the GAG-degrading enzymes were incubated for 1 hour in suspension at 37° C. Cell suspensions were seeded onto Matrigel-coated surfaces, recombinant vitronectin-coated surfaces (10 μg/mL, R&D Systems), or SAMs presenting the peptide […] (SEQ ID NO: 1) at a 5% surface density. After 1 hour, surfaces were washed 3 times with PBS and the cells were lysed with M-PER buffer (Thermo Fisher Scientific, Inc., Rockford, Ill.). The cell lysate was mixed with CellTiter-Glo (Promega) to determine the number of viable cells in culture based on the presence of ATP. The luminescence was measured on 20/20^n luminometer (Turner Biosystems, Inc., Sunnyvale Calif.). • Cell Growth: […]

[3] = system: hES cells (H9 and H13) and vector-free iPS cells (DF19-9); experiment: Cell growth over two passages (Cell Counting Kit-8); assay type: cell-based, human
Procedure: hESCs (H9) were cultured on Matrigel, vitronectin, polylysine, […] (SEQ ID NO: 1), or KGRGDS (SEQ ID NO: 5) over two passages in mTeSR media supplemented with 5 μm ROCK inhibitor. Cell counts were calculated at each time point using Cell Counting Kit-8 (Dojindo Molecular Technologies, Inc., Rockville, Md.).

[4] = system: pluripotent stem cells; experiment: Number of cell divisions by fluorescent cell staining; assay type: cell-based, human
[5] = system: undifferentiated hESCs (Oct-4 positive) and differentiated cells derived from embryoid bodies (Oct-4 negative); experiment: Effect of ROCK inhibitor on cellular adhesion; assay type: cell-based, human
Procedure: Effect of ROCK inhibitor on cellular adhesion: A mixture of undifferentiated hESCs (Oct-4 positive) and differentiated cells derived from embryoid bodies (Oct-4 negative) was seeded onto self-assembled monolayer surfaces presenting the GBP […] (SEQ ID NO: 1) and the integrin binding peptide KGRGDS (SEQ ID NO: 5). For some experiments, cells were seeded onto polyacrylamide gels or glass coverslips presenting the […] (SEQ ID NO: 47) peptide. The cells were grown for 24 hours in mTeSR medium containing 5 μM ROCK inhibitor Y-27632 and then switched to mTeSR medium without ROCK inhibitor for an additional 24 hours. The cells were fixed and stained for Oct-4 and counterstained with phalloidin and DAPI. In some instances, cells were added to the surfaces without ROCK inhibitor.

[6] = system: hESCs; experiment: Culture on other chemically defined surfaces (streptavidin plates, polyacrylamide gels, glass coverslips); assay type: cell-based, human
Source text: Moreover, some hESCs were passaged to streptavidin-coated plates treated with biotinylated vitronectin GBP (SEQ ID NO:1) or polyacrylamide gels cross-linked to vitronectin GBP (SEQ ID NO:1).

[7] = system: hESCs; experiment: Initial cell survival on SAMs with heregulin supplement; assay type: cell-based, human; conditions: 10 ng/ml in mTeSR1
Procedure: hESCs were passaged to SAMs of peptide-AT conjugates on gold in mTeSR™1 optionally supplemented with 10 ng/ml heregulin-β1 (Peprotech; Rocky Hill, N.J.) and 5 μM Y-27632 (Calbiochem; San Diego, Calif.). […] Some surfaces presented peptide-AT conjugates of only vitronectin GBP (SEQ ID NO:1), fibronectin GBP (SEQ ID NO:2) or bone sialoprotein GBP (SEQ ID NO:3) Alternatively, some surfaces presented peptide-AT conjugates of only the integrin-binding peptide (SEQ ID NO:5), another bioactive peptide derived from fibronectin (SEQ ID NO:6), the FGF receptor binding peptide (SEQ ID NO:4), the laminin-derived bioactive peptide (SEQ ID NO:7), […] (SEQ ID NO: 8) or […] (SEQ ID NO: 9). Furthermore, some surfaces presented separate peptide-AT conjugates of the integrin-binding peptide (SEQ ID NO:5) and FGF receptor binding peptide (SEQ ID NO:4); the integrin-binding peptide (SEQ ID NO:5) and vitronectin GBP (SEQ ID NO:1); the integrin-binding peptide (SEQ ID NO:5) and bioactive peptide derived from fibronectin (SEQ ID NO:6); and the vitronectin GBP (SEQ ID NO:1) and […] (SEQ ID NO: 9). The density of the peptides on the surface varied from 0.5% to 25% (see, FIG. 1).

[8] = system: hESCs; experiment: Flow cytometry of pluripotent cell-specific markers after three passages on SAMs; assay type: cell-based, human; conditions: for pluripotent cell-specific marker expression (Oct-4, SSEA-3, SSEA-4) after 3 passages: 3 passages on SAMs
Procedure: The density of the peptides on the surface varied from 0.5% to 25% (see, FIG. 1).
Regardless of the nature of the chemically defined surface or peptide(s) attached thereto, about 5×10^4 cells/ml were manually passaged to a fresh chemically defined surface every 5-7 days (i.e., at confluency) after treatment with an Enzyme-Free Cell Dissociation Buffer (Sigma; St. Louis, Mo.; a phosphate-buffered saline (PBS)+ethylenediamine tetraacetic acid (EDTA) 0.02% wt/vol) for 10-15 minutes. After three passages (about 21 days), the cells were evaluated for pluripotent cell-specific markers by flow cytometry.
hESCs were dissociated with 0.05% trypsin-EDTA with 2% chicken serum (Gibco). Cell surface marker staining was performed in PBS containing 2% BSA (wt/vol) at 4° C. for 30 minutes with directly conjugated antibodies against alkaline phosphatase (R&D Systems), Tra 1-60 (BD Biosciences), Tra 1-81 (BD Biosciences), SSEA-4 (BD Biosciences), SSEA-3 (BD Biosciences), SSEA-1 (R&D Systems) followed by a 30 minute fixation with 2% formaldehyde/PBS at room temperature.
For intracellular marker staining, hESCs were fixed with 2% formaldehyde/PBS at room temperature for 30 minutes. For Oct-4 staining, cells were permeabilized with saponin permeabilization buffer (SPB; 0.1% saponin, 0.1% BSA wt/vol in PBS) for 30 minutes at room temperature followed by incubation with an Oct-4 PE-conjugated antibody overnight. Cells were then washed 2 times with SPB before analysis.
Flow cytometry data was obtained using a FACSCalibur™ (BD Biosciences) and analyzed using FlowJo Software (Tree Star, Inc.; Ashland, Oreg.). The percentage of positive cells was established by comparing experimental cells to partially differentiated hESCs. Gating for positive and negative populations was established by analyzing the bimodal peaks of partially differentiated hESCs.

[9] = 24 hours with 5 μM, then 24 hours without

CC(C)[C@H](N)C(=O)O [V, valine]
Hydropathy index [1]: 4.2

N=C(N)NCCC[C@H](N)C(=O)O [R, arginine]
Hydropathy index [1]: −4.5

N[C@@H](CCC(=O)O)C(=O)O [E]
Hydropathy index [1]: −3.5

CSCC[C@H](N)C(=O)O [M, methionine]
Hydropathy index [1]: 1.9

N[C@@H](CS)C(=O)O [C]
Hydropathy index [1]: 2.5

C[C@H](N)C(=O)O [A, alanine]
Hydropathy index [1]: 1.8

N[C@@H](CO)C(=O)O [S]
Hydropathy index [1]: −0.8

N[C@@H](Cc1ccccc1)C(=O)O [F, phenalalanine]
Hydropathy index [1]: 2.8

CC[C@H](C)[C@H](N)C(=O)O [I, isoleucine]
Hydropathy index [1]: 4.5

vitronectin: recombinant vitronectin-coated surfaces (10 μg/mL, R&D Systems)
adhesion of cells treated with chondroitinase ABC ([2]; 2 units/mL chondroitinase ABC, 5% surface density): maintained their ability to adhere
hESC binding in the presence of soluble heparin [2]: not
plating efficiency after 24 hours [3]: equivalent
cell numbers after each passage ([3]; two passages, mTeSR with ROCK inhibitor): Increased cell numbers
number of cell divisions [4]: fewer cell divisions

N[C@@H](Cc1c[nH]c2ccccc12)C(=O)O [W]
Hydropathy index [1]: −0.9

C[C@@H](N)[C@H]1CC[C@H](C(=O)Nc2ccncc2)CC1.Cl.Cl [ROCK inhibitor, (+)-(R)-trans-4-(1-aminoethyl)-N-(4-pyridyl)cyclohexanecarboxamide dihydrochloride]
attachment of differentiated cells after removal of ROCK inhibitor [5, 9]: remained attached and viable
attachment of undifferentiated cells after removal of the ROCK inhibitor [5, 9]: significant detachment
Oct-4 positive undifferentiated cells among adherent cells when seeded without the ROCK inhibitor ([5]; cells added to the surfaces without ROCK inhibitor): few of these cells were Oct-4 positive

C[C@@H](O)[C@H](N)C(=O)O [T]
Hydropathy index [1]: −0.7

N[C@@H](Cc1c[nH]cn1)C(=O)O [H, histidine]
Hydropathy index [1]: −3.2

heparin [reference compound]
hESC binding in the presence of soluble heparin [2]: inhibited adhesion

N[C@@H](Cc1ccc(O)cc1)C(=O)O [Y]
Hydropathy index [1]: −1.3

NCCCC[C@H](N)C(=O)O [K, lysine]
Hydropathy index [1]: −3.9

biotinylated SEQ ID NO:1: streptavidin-coated plates treated with biotinylated vitronectin GBP (SEQ ID NO:1) (GKKQRFRHRNRKG; not fully specified (C-terminus); also: biotinylated, site not given here; listed as Homo sapiens)
cell adhesion and growth on non-SAM substrate ([6]; compared with SAMs): supported cell adhesion and growth, although not to the same extent
cell death when ROCK inhibitor is omitted ([6]; streptavidin-coated plates): without observable increase in cell death
colony spreading ([6]; streptavidin-coated plates, compared with SAMs): lower than on SAMs

CGKKQRFRHRNRKG (not fully specified (C-terminus); also: conjugated to polyacrylamide or glass; listed as Homo sapiens) [peptide conjugated to polyacrylamide gels or glass coverslips]
cell adhesion and growth on non-SAM substrate ([6]; compared with SAMs): supported cell adhesion and growth comparable to SAMs

NC(=O)C[C@H](N)C(=O)O [N]
Hydropathy index [1]: −3.5

heregulin
initial cell survival [7]: modest improvement

KGRGDS (not fully specified (C-terminus); listed as Homo sapiens)
support of self-renewal ([8]; 3 passages): insufficient to support self-renewal
pluripotent cell-specific marker expression (Oct-4, SSEA-3, SSEA-4) after 3 passages [8]: significantly lower levels of pluripotent cell-specific markers
pluripotent cell-specific marker expression (Oct-4, SSEA-3, SSEA-4) after 3 passages ([8]; listed as RGD-presenting surfaces): fewer cells in the population displayed markers of pluripotency
cell growth rate on surface ([8]; compared with GAG-binding peptide surfaces): much more slowly
plating efficiency after 24 hours [3]: lowest plating efficiency
number of cell divisions [4]: fewer cell divisions

N[C@@H](CC(=O)O)C(=O)O [D]
Hydropathy index [1]: −3.5
